Assay results published in US20050282859A1, “Dual acting SNRI-NMDA antagonists for the treatment of genitourinary disorders” (priority 2004, published 2005).
“Also recorded” adds a separate entry of the source. Like-named read-outs stand apart in the source and are kept apart here.

Columns and labels:
[1] = system: acetic acid-induced bladder irritation; conditions: cat, S-norfluoxetine at 3 and 10 mg/kg; cited from earlier work
[2] = system: acetic acid-induced bladder irritation; assay: Acute rat dilute acetic acid model (cystometry); format: in vivo; conditions: acetic acid infusion compared to vehicle
From the text: The acute models described below provide methods for evaluating active agents in the treatment of overactive bladder. Briefly, the models provide a method for reducing the bladder capacity of test animals by infusing either protamine sulfate and potassium chloride (See, Chuang, Y. C. et al., Urology 61(3): 664-670 (2003)) or dilute acetic acid (See, Thor, K. and Katofiasc., M., 1995, J. Pharmacol. Exptl. Ther., 274:1014-1024; Sasaki, K. et al, J. Urol. 168(3) 1259-1264 (2002)) into the bladder. The infusates cause irritation of the bladder and a reduction in bladder capacity by selectively activating bladder afferent fibers, such as C-fiber afferents. Following irritation of the bladder, an active agent (drug) can be administered and the ability of the active agent to reverse (partially or totally) the reduction in bladder capacity resulting from the irritation, can be determined. Substances which reverse the reduction in bladder capacity can be used in the treatment of overactive bladder. Female rats (250-275 g) were anesthetized with urethane (1.2 g/kg) and a saline-filled jugular catheter (PE-50) was inserted for intravenous drug administration and a heparinized (100 units/ml) saline-filled carotid catheter (PE-50) was inserted for blood pressure monitoring. Via a midline abdominal incision from xyphoid to navel, a PE-50 catheter was inserted into the bladder dome for bladder filling and pressure recording. The abdominal cavity was moistened with saline and closed by covering with a thin plastic sheet in order to maintain access to the bladder for filling cystometry emptying purposes. […] Data for bicifadine were analyzed by non-parametric ANOVA for repeated measures (Friedman Test) with Dunn's Multiple Comparison test for cumulative dose-response studies. […] Additionally, % voiding efficiency was calculated using the following formula: ([…]/(Single Cystometrogram Bladder Capacity))*100 for bicifadine.

[3] = system: acetic acid-induced bladder irritation; assay: Acute cat dilute acetic acid model (cystometry, EUS-EMG); format: in vivo; conditions: for bladder capacity: intravenous, during acetic acid infusion
Protocol: The ability of bicifadine and milnacipran, exemplary dual acting SNRI-NMDA antagonists, to reverse the reduction in bladder capacity observed following continuous infusion of dilute acetic acid in a cat model was tested. The cat model is a commonly used model for overactive bladder (Thor and Katofiasc, 1995, J. Pharmacol. Exptl. Ther. 274: 1014-24). Female cats (2.2-3 kg B W Harlan) were anesthetized with 4% isoflurane for induction followed by intravenous administration of α-chloralose (68-75 mg/kg). An i.v. catheter was inserted in the radial vein for drug administration. A heparinized (100 units/ml) saline-filled catheter (PE-90) was inserted into the carotid artery to monitor blood pressure. A trachea tube was place to monitor respiration. Via a midline lower abdominal incision, a modified 16 gauge i.v. catheter was inserted into the bladder dome for bladder filling and pressure recording. The abdominal cavity was moistened with saline and closed by covering with a thin plastic sheet in order to maintain access to the bladder for emptying purposes. Fine silver or stainless steel wire electrodes were inserted intraurethrally into the external urethral sphincter (EUS) for electromyography (EMG). Saline was continuously infused at a rate of 0.5-1 ml(s)/min via the bladder catheter for 60 minutes to obtain baseline of lower urinary tract activity (continuous cystometry; CMG). Following the control period, a 0.5% acetic acid (AA) solution in saline was infused into the bladder at the same flow rate to induce bladder irritation. Following 30 minutes of AA infusion, in one example, 1-2 vehicle injections were made at 30 minute intervals to determine vehicle effects, if any. Subsequently, increasing doses of bicifadine (0.1, 0.3, 1, 3 and 10 mg/kg) were administered intravenously at 30-60 minute intervals in order to construct a cumulative dose-response relationship (n=6). At the end of the control saline cystometry period, the vehicle, and 15 minutes following each subsequent treatment, the infusion pump was stopped, the bladder was emptied by fluid withdrawal via the infusion catheter and a single filling cystometrogram was performed at the same flow rate in order to determine changes in bladder capacity caused by the irritation protocol and subsequent drug administration. In a second example, subsequent to AA infusion, a vehicle injection was made to ensure that there were no vehicle effects. 10 mg/kg of milnacipran was then administered intravenously. The external urethral EMG activity, bladder pressure, and volume voided was measured during saline infusion, during AA infusion, and subsequent to milnacipran administration. Data for bicifadine were analyzed by non-parametric ANOVA for repeated measures (Friedman Test) with Dunn's Multiple Comparison test for cumulative dose-response studies. All comparisons were made from the last vehicle measurement. P<0.050 was considered significant.

[4] = i.v. cumulative doses 0.1-10 mg/kg

COc1ccc(C(CN(C)C)C2(O)CCCCC2)cc1 (stereo not drawn) [venlafaxine]
bladder capacity [1]: markedly increases | urethral sphincter electromyographic (EMG) activity [1]: markedly increases

Cc1ccc(C23CNCC2C3)cc1 (stereo not drawn) [bicifadine]
increase in bladder capacity ([2]; 1-10 mg/kg i.v. cumulative doses): ~100% | effect on bladder capacity ([2]; all doses (1, 3, 10 mg/kg i.v.)): had an effect on the bladder capacity | voiding efficiency ([2]; increasing i.v. doses): not effected; also recorded: basically unaffected | increase in bladder capacity ([3]; 1-10 mg/kg i.v. cumulative doses, acetic acid infusion compared to vehicle): 3 fold | increase in voiding efficiency ([3]; 1-10 mg/kg i.v., acetic acid infusion compared to vehicle): ~10% | increases in sphincter EMG during bladder filling ([3]; i.v. bicifadine, n=6 experiments): seen in two of the six experiments | arterial pressure [3, 4]: No significant decrease; also recorded: No significant changes | heart rate [3, 4]: No significant changes | contraction frequency (bladder overactivity) during continuous cystometry ([3]; i.v., 1-10 mg/kg, acetic acid infusion): reduced bladder overactivity; also recorded: dose dependent decrease from 1-10 mg/kg but this was not significant | bladder capacity [3]: significant increase | sphincter EMG activity during micturition contractions (bladder-sphincter synergy) ([3]; the two experiments with increased sphincter EMG): inhibited during micturition contractions

CNCC[C@H](Oc1cccc2ccccc12)c1cccs1 [duloxetine]
bladder capacity [1]: markedly increases | urethral sphincter electromyographic (EMG) activity [1]: markedly increases

NCC[C@H](Oc1ccc(C(F)(F)F)cc1)c1ccccc1 [S-norfluoxetine]
bladder capacity [1]: small increases | urethral sphincter electromyographic (EMG) activity [1]: small increases

CNCCC(Oc1ccccc1SC)c1ccccc1 (stereo not drawn) [thionisoxetine]
bladder capacity [1]: no effects | urethral sphincter electromyographic (EMG) activity [1]: no effects

CCN(CC)C(=O)C1(c2ccccc2)CC1CN (stereo not drawn) [milnacipran]
sphincter EMG activity ([3]; 10 mg/kg i.v., acetic acid infusion): unexpected increase | increase in bladder capacity ([3]; 10 mg/kg i.v., acetic acid infusion compared to control): ~2 fold | increase in sphincter EMG activity, Root Mean Square ([3]; 10 mg/kg i.v., during the period following the bladder contraction): 82.5 millivolts | increase in sphincter EMG activity, Root Mean Square ([3]; 10 mg/kg i.v., during the period of bladder filling): 19.4 millivolts | bladder capacity [3]: significant increase
